{
  "source": "PubChem BioAssay AID720695",
  "about": "(Broad Institute, 2013)",
  "note": "Activity calls are given as the source filed them.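 The calls were made as follows: active = compounds lowering Shn3 signal with a fitted half-maximal concentration at most twice the top tested dose; inconclusive = flat curve with 30 to 70% loss, or poor fit; inactive = the rest.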",
  "data": [
    {"target": "Schnurri-3 (HIVEP3) mRNA", "assay": "reduction of Shn3 mRNA levels, dose response, orthogonal assay for Schnurri-3 inhibitor project, Clone20 cells, qPCR, dry powder (AID 720695)", "conditions": "overnight", "units": {"AC50": "µM"}, "values": [
      {"smiles": "O=C(c1nnsc1S(=O)c1ccc(Cl)cc1)N1CCOCC1", "note": "(stereo not drawn)", "AC50": 13.7},
      {"smiles": "CCCc1nnc(NC(=O)c2nc(S(=O)(=O)Cc3ccc(C)cc3)ncc2Cl)s1", "AC50": 28},
      {"smiles": "COc1ccc(NC(=O)c2nc(S(=O)(=O)Cc3cccc(C)c3)ncc2Cl)c(OC)c1", "AC50": 8.91},
      {"smiles": "CN(C(=O)COc1ccccc1C(=O)NCCOc1ccccc1)c1ccccc1", "AC50": 26.6},
      {"smiles": "CCOC(=O)c1ccc(NC(=O)Cn2ncc(Cl)c(Cl)c2=O)cc1", "AC50": 11.6},
      {"smiles": "COc1cc(CN2CCc3ccccc3C2)ccc1O", "AC50": 6.67},
      {"smiles": "CC(C)[C@H](NC(=O)OC(C)(C)C)c1nnc(S(=O)(=O)Cc2c(F)cccc2Cl)o1", "AC50": 22.3}
    ]},
    {"target": "Schnurri-3 (HIVEP3) mRNA", "assay": "reduction of Shn3 mRNA levels, dose response, orthogonal assay for Schnurri-3 inhibitor project, Clone20 cells, qPCR, dry powder (AID 720695)", "conditions": "overnight, at 35 µM (top of the series)", "values": [
      {"smiles": "COc1ccc2c(c1)c(CC(=O)Nc1cc(C)ccc1C)c(C)n2C(=O)c1ccc(Cl)cc1", "Shn3 expression, relative signal": "inactive"},
      {"smiles": "CCOC(=O)C1(Cc2ccc(Cl)cc2)CCN(C(C)Cc2ccc(O)c(OC)c2)CC1", "note": "(stereo not drawn)", "Shn3 expression, relative signal": "inactive"},
      {"smiles": "CN(CC(=O)Nc1cccc(S(=O)(=O)N2CCOCC2)c1)CC(=O)Nc1ccc(Cl)c(C(F)(F)F)c1", "Shn3 expression, relative signal": "inactive"},
      {"smiles": "CN(C)S(=O)(=O)c1cccc(NC(=O)c2cccc(S(=O)(=O)N3CCc4ccccc43)c2)c1", "Shn3 expression, relative signal": "inactive"},
      {"smiles": "CCOC(=O)C1CCN(C(=O)c2ccc(OCC(=O)Nc3cccc(C(F)(F)F)c3)c(OC)c2)CC1", "Shn3 expression, relative signal": "inactive"},
      {"smiles": "Fc1ccc(-n2nnnc2-c2cnc(-c3cccs3)nc2C(F)(F)F)cc1", "Shn3 expression, relative signal": "inactive"},
      {"smiles": "Cc1cc(N2CCCC2=O)cc(C)c1S(=O)(=O)NCCOc1ccc(C(C)(C)C)cc1", "Shn3 expression, relative signal": "inactive"},
      {"smiles": "Cc1cc2c(cc(C(=O)N3CCC(C(=O)NC4CCCC4)CC3)n2Cc2c(F)cccc2Cl)o1", "Shn3 expression, relative signal": "inactive"},
      {"smiles": "COc1cc2ncnc(N[C@H](C)c3ccccc3)c2cc1OC", "Shn3 expression, relative signal": "inactive"},
      {"smiles": "CCCOc1ccccc1C1CC(=O)Nc2cc3c(cc21)OCO3", "note": "(stereo not drawn)", "Shn3 expression, relative signal": "inactive"},
      {"smiles": "COc1ccccc1N1CCN(c2ncc(C(=O)N3CCN(c4cccc(Cl)c4)CC3)c3ccccc23)CC1", "Shn3 expression, relative signal": "inactive"},
      {"smiles": "CC(=O)Nc1cccc(NC(=O)CSc2ncc(-c3ccc(Cl)cc3)n2Cc2ccco2)c1", "Shn3 expression, relative signal": "inactive"},
      {"smiles": "CN(C)c1nc(-c2ccccn2)nnc1-c1ccccc1", "Shn3 expression, relative signal": "inactive"},
      {"smiles": "COc1ccc(Nc2nc(N3CCCCC3)c3ccccc3n2)cc1", "Shn3 expression, relative signal": "inactive"},
      {"smiles": "CC(=O)N1CCN(C(=O)CCc2cc(C(C)(C)C)c(O)c(C(C)(C)C)c2)CC1", "Shn3 expression, relative signal": "inactive"},
      {"smiles": "COc1ccc(NS(=O)(=O)c2ccc(C(=O)N3CCCCCC3)cc2)cc1", "Shn3 expression, relative signal": "inactive"},
      {"smiles": "Cc1ccc2cc(CN(CC3CCCO3)C(=O)NC3CCCCC3)c(=O)[nH]c2c1C", "note": "(stereo not drawn)", "Shn3 expression, relative signal": "inactive"},
      {"smiles": "O=c1c2ccccc2nc2n1C(CSCc1ccc(Cl)cc1Cl)CS2", "note": "(stereo not drawn)", "Shn3 expression, relative signal": "inactive"},
      {"smiles": "CC(C)(C)NC(=O)CSc1nc2ccc(NC(=O)CSc3nnnn3Cc3ccccc3)cc2s1", "Shn3 expression, relative signal": "inactive"},
      {"smiles": "O=C1CSc2ccc(C(=O)Nc3cccc(S(=O)(=O)Nc4ccc(Br)cc4)c3)cc2N1", "Shn3 expression, relative signal": "inactive"},
      {"smiles": "Nc1nonc1C(=O)NCCNCc1cc(Br)ccc1OCc1ccc(F)cc1", "Shn3 expression, relative signal": "inactive"}
    ]}
  ]
}
